According to the supplement of paper PMC4862054:

How the values were obtained:
Conditions in all cases: incubation time: 72 h
[1] = test system: CAL-120; assay: normalised viability (% of control), CellTiter-Blue; higher = more viable cells (about 100 = DMSO control)
Outline: (§1)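 The reported figure is normalised viability at a single listed concentration of the series. Breast cancer cell lines (20 µl suspension) went onto 384-well plates holding compound in 5 µl medium for 72 h. CellTiter-Blue (2.5 µl, 2 h, 37 °C) was read by fluorescence at 560/590 nm, and each plate was scaled to vehicle at 100 and a positive kill control at 0.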

[2] = test system: BT-474; assay: as above
Outline: as §1

[3] = test system: MDA-MB-231; assay: as above
Outline: as §1

[4] = test system: CAL-120; assay: normalised viability (% of control), CellTiter-Blue; higher = more viable cells (about 100 = DMSO control); remark: listed apart in the source
Description: (§2)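 DSRT, CellTiter-Blue viability, 72 h incubation. Signal is normalised to DMSO and benzethonium chloride controls. Value is the normalised response at dose 3.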

[5] = test system: MFM-223; assay: as above
Description: as §2

[6] = test system: CAL-51; assay: as above
Description: as §2

[7] = test system: MDA-MB-436; assay: as above
Description: as §2

[8] = test system: MCF-10A; assay: drug sensitivity score (DSS), CellTiter-Glo (DSS (AUC-based score)); higher = stronger drug effect (viability inhibition or cytotoxicity); extreme values may be limits of the assay
Outline: (§3)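 In 384-well plates, compound was laid out at 5 concentrations in 10-fold steps over a 10,000-fold range specific to each compound, and breast cancer cell lines were seeded on top in 20 µl suspension for a 72 h incubation. CellTox Green fluorescence and then CellTiter-Glo luminescence were read, and each plate was normalised to 0.1 % DMSO and a positive kill control. The drug sensitivity score was calculated from the area under the fitted dose-response curve.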

[9] = test system: HCC1599; assay: as above
Outline: as §3

[10] = test system: CAL-120; assay: as above
Outline: as §3

[11] = test system: BT-474; assay: as above
Outline: as §3

[12] = test system: MDA-MB-453; assay: as above
Outline: as §3

[13] = test system: CAL-148; assay: as above
Outline: as §3

[14] = test system: MFM-223; assay: as above
Outline: as §3

[15] = test system: HDQ-P1; assay: as above
Outline: as §3

[16] = test system: MDA-MB-468; assay: as above
Outline: as §3

[17] = test system: MDA-MB-231; assay: as above
Outline: as §3

[18] = test system: BT-549; assay: as above
Outline: as §3

[19] = test system: CAL-51; assay: as above
Outline: as §3

[20] = test system: SK-BR-3; assay: as above
Outline: as §3

[21] = test system: HCC1937; assay: as above
Outline: as §3

[22] = test system: CAL-85-1; assay: as above
Outline: as §3

[23] = test system: MDA-MB-436; assay: as above
Outline: as §3

[24] = test system: Hs578T; assay: as above
Outline: as §3

[25] = test system: HCC1143; assay: as above
Outline: as §3

[26] = test system: DU-4475; assay: as above
Outline: as §3

Row | Structure (SMILES) | normalised viability ([1]; 10000 nM) [%] | normalised viability ([2]; 10000 nM) [%] | normalised viability ([3]; 10000 nM) [%] | drug sensitivity score [8] | drug sensitivity score [9] | drug sensitivity score [10] | drug sensitivity score [11] | drug sensitivity score [12] | drug sensitivity score [13] | drug sensitivity score [14] | drug sensitivity score [15] | drug sensitivity score [16] | drug sensitivity score [17] | drug sensitivity score [18] | drug sensitivity score [19] | drug sensitivity score [20] | drug sensitivity score [21] | drug sensitivity score [22] | drug sensitivity score [23] | drug sensitivity score [24] | further results
1 | S=P(N1CC1)(N1CC1)N1CC1 [Thio-TEPA] | 86.8 | 114 | 83.2 | 0 | 0 | 0 | 0 | 0 | 0 | 0 | 0 | 0 | 0 | 1.83 | 0 | 0 | 0 | 0 | 0 | 0 | normalised viability ([1]; 100 nM): 90.7%; normalised viability ([1]; 100000 nM): 93.7%; normalised viability ([2]; 100 nM): 119%; normalised viability ([2]; 100000 nM): 115%; normalised viability ([3]; 100 nM): 103%; normalised viability ([3]; 100000 nM): 64.4%; normalised viability ([4]; 1000 nM): 86.7%; normalised viability ([5]; 1000 nM): 88.4%; normalised viability ([6]; 100 nM): 93.7%; normalised viability ([7]; 1000 nM): 118%; drug sensitivity score [25]: 0; drug sensitivity score [26]: 0
2 | CN(C)c1nc(N(C)C)nc(N(C)C)n1 [Altretamine] | 105 | 138 | 106 | 0 | 0 | 0 | 0 | 0 | 0 | 0 | 0 | 0 | 0 | 0 | 0 | 0 | 0 | 0 | 0 | 0 | normalised viability ([1]; 10 nM): 88.6%; normalised viability ([1]; 1000 nM): 98.5%; normalised viability ([2]; 10 nM): 117%; normalised viability ([2]; 1000 nM): 134%; normalised viability ([3]; 10 nM): 99.7%; normalised viability ([3]; 1000 nM): 90.9%; normalised viability ([4]; 100 nM): 95.5%; normalised viability ([5]; 100 nM): 97.2%; normalised viability ([6]; 10 nM): 103%; normalised viability ([7]; 100 nM): 89.5%; drug sensitivity score [25]: 0; drug sensitivity score [26]: 0
